The test system of assay [1] is DBA/2 mice with Cloudman S91 melanoma. In words: Photodynamic therapy, Cloudman S91 melanoma. It is filed as in vivo. The note with it: PDT. As for the experimental part:
(§1) In order to evaluate the potential utility of MTP for enhancing the therapeutic efficacy of a drug that requires localization within the cell nucleus to be effective, photodynamic therapy (PDT) studies were performed in three different murine subcutaneous tumor models, with PDT initiated three hours after photosensitizer (PS) injection. The comparative efficacy of photodynamic therapy with bacteriochlorin p conjugated with DTox-HMP-NLS-αMSH MTP and free bacteriochlorin p is reported in FIGS. 11A-D.
The second experiment utilized DBA/2 mice with Cloudman S91 melanoma. FIG. 11C reports tumor growth, mean±SEM with the injection and illumination cycles being indicated with arrows. The average tumor volumes are shown up to the last day when all animals were alive in a group. FIG. 11D provides the Kaplan-Meier survival curve. […] The median survival for mice receiving PS-MTP conjugate was 56.0±18.6 days compared with 21.0±0.7 days for the control group and 31.0±1.3 days for the bacteriochlorin group (FIG. 11D).

The subject of assay [2] is C57Black/6J mice with B16-F1 melanoma. In words: Photodynamic therapy, B16-F1 melanoma. The class given is in vivo. The method, then: as §1
The first experiment was performed in C57Black/6J mice with B16-F1 melanoma. FIG. 11A reports tumor growth, mean±SEM, with injection and illumination cycles indicated with arrows. The average tumor volumes are shown up to the last day when all animals were alive in a group. FIG. 11B provides the Kaplan-Meier survival curve. […] The median survival for mice receiving PS-MTP conjugate was 32.0±1.3 days compared with 17.0±1.5 days for the control group and 20.0±5.5 days for the bacteriochlorin group (FIG. 11B). The difference in survival between PS-MTP and each of two control groups was significant (p<0.01).

The test system of assay [3] is Balb/c ByJIco-nu/nu mice with A431 human epidermoid carcinoma xenografts. The note with it: mouse, in vivo.

We go through two compounds from patent publication US9095624B2 (priority 2011, dated 2015).

Regarding bacteriochlorin p, the median survival in assay [1] came to 31.0 ± 1.3 days; in assay [2] (PDT) it was 20.0 ± 5.5 days. The “inhibition in tumor growth” value in assay [2] (PDT three hours after photosensitizer injection) is reported as “no significant effect”.
As for `C=Cc1c(C)c2cc3nc(c(CC(=O)O)c4[nH]c(cc5nc(cc1[nH]2)C(C)=C5CC)c(C)c4C(=O)O)[C@@H](CCC(=O)O)[C@@H]3C` [chlorin e6], the “animals remaining alive at the end of the observation period” value in assay [3] is recorded as 20%.
